In ChEMBL document CHEMBL3232869, “Anti-inflammatory components of Euphorbia humifusa Willd” (Bioorg Med Chem Lett, 2014):
Calls of active or inactive are those of the source. The rule behind the calls is not given here.

Tests used:
[1] = test system: RAW264.7; test: Antiinflammatory activity in mouse RAW264.7 cells assessed as inhibition of LPS-induced TNF-alpha secretion at 10 uM after 18 hrs by sandwich ELISA; type: functional; details: for inhibition at 10 µM: RAW264.7, 18 h
[2] = test system: RAW264.7; test: Antiinflammatory activity in mouse RAW264.7 cells assessed as inhibition of LPS-induced nitric oxide production at 10 uM after 18 hrs by griess reaction analysis; type: functional; details: for inhibition at 10 µM: RAW264.7, 18 h
[3] = test system: RAW264.7; test: Antiinflammatory activity in mouse RAW264.7 cells assessed as inhibition of LPS-induced TNF-alpha secretion at 0.4 uM after 18 hrs by sandwich ELISA; type: functional, cell-based
[4] = test system: RAW264.7; test: Antiinflammatory activity in mouse RAW264.7 cells assessed as inhibition of LPS-induced TNF-alpha secretion after 18 hrs by sandwich ELISA; type: functional, cell-based; details: RAW264.7, 18 h
[5] = test system: RAW264.7; test: Cytotoxicity against mouse RAW264.7 cells assessed as cell viability at 50 uM after 18 hrs by MTT assay in presence of LPS; type: cell-based; details: raw264.7, 18 h
[6] = test system: RAW264.7; test: Antiinflammatory activity in mouse RAW264.7 cells assessed as inhibition of LPS-induced nitric oxide production after 18 hrs by griess reaction analysis; type: functional, cell-based; details: RAW264.7, 18 h
[7] = test system: RAW264.7; test: Antiinflammatory activity in mouse RAW264.7 cells assessed as inhibition of LPS-induced nitric oxide production at 0.4 uM after 18 hrs by griess reaction analysis; type: functional, cell-based
[8] = target: T1, Bifunctional epoxide hydrolase 2 (Homo sapiens) (UniProt P34913); test: Inhibition of sEH (unknown origin) assessed as substrate PHOME hydrolysis at 25 uM after 1 hr by fluorescence method
T1 sequence (whole entry): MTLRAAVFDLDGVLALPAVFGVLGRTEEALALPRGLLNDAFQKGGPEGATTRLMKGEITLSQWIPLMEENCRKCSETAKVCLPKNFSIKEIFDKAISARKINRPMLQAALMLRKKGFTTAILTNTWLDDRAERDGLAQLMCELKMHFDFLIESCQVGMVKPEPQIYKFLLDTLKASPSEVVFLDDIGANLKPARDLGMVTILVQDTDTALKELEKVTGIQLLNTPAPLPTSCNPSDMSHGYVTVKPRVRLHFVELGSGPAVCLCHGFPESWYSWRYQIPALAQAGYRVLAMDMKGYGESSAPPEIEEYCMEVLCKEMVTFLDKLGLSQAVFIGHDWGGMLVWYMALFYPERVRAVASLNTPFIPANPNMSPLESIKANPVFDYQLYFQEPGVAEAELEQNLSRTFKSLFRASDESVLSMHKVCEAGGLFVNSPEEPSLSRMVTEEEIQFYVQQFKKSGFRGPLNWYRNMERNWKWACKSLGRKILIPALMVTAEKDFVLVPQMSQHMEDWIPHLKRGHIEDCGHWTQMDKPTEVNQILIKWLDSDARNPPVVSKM

[9] = target: T2, Bifunctional epoxide hydrolase 2 (Homo sapiens, UniProt P34913); test: Inhibition of sEH (unknown origin) assessed as substrate PHOME hydrolysis after 1 hr by fluorescence method
T2 sequence (P34913 whole entry): T1 sequence (whole entry)

| Compound | inhibition at 10 µM [1] | inhibition at 10 µM [2] | inhibition [3] | IC50 [4] | Activity [5] | IC50 [6] | inhibition [7] | inhibition [8] | IC50 [9] | inhibition [2] | inhibition [1] |
| --- | --- | --- | --- | --- | --- | --- | --- | --- | --- | --- | --- |
| COC/C=C/c1cc(OC)c(O[C@@H]2O[C@H](CO)[C@@H](O)[C@H](O)[C@H]2O)c(OC)c1 | 21.5% | 30% | inactive | 17.5 µM | Non-toxic | 17.2 µM | inactive |  |  |  |  |
| O=C(O[C@H]1[C@H](Oc2c(-c3ccc(O)c(O)c3)oc3cc(O)cc(O)c3c2=O)O[C@H](CO)[C@@H](O)[C@@H]1O)c1cc(O)c(O)c(O)c1 | 21.5% |  | inactive | 16.4 µM | Non-toxic |  | inactive | > 40% | 18 µM | inactive |  |
| COC(=O)c1cc(O)c(O)c(O)c1 [GALLIC ACID METHYL ESTER] |  | 35.1% | inactive | 29.4 µM | Non-toxic | 11.1 µM | inactive |  |  |  | Active |
| O=c1oc2c(O)c(O)cc3c(=O)oc4c(O)c(O)cc1c4c23 [ELLAGIC ACID] |  |  | inactive | > 50 µM | Non-toxic | 35.7 µM | inactive | > 40% | 20.7 µM | inactive | Active |
| C[C@@H]1O[C@@H](OC[C@H]2O[C@@H](Oc3c(-c4ccc(O)c(O)c4)oc4cc(O)cc(O)c4c3=O)[C@H](O)[C@@H](O)[C@@H]2O)[C@H](O)[C@H](O)[C@H]1O [RUTIN] |  |  | inactive | 44.5 µM | Non-toxic | 27.5 µM | inactive | > 40% | 24.3 µM | Active | Active |
| O=C(O[C@H]1[C@H](Oc2c(-c3ccc(O)cc3)oc3cc(O)cc(O)c3c2=O)O[C@H](CO)[C@@H](O)[C@@H]1OC(=O)c1cc(O)c(O)c(O)c1)c1cc(O)c(O)c(O)c1 |  |  | inactive |  | Non-toxic |  | inactive | > 40% | 23.8 µM | inactive | Active |
| O=c1c(O)c(-c2ccc(O)c(O)c2)oc2cc(O)cc(O)c12 [QUERCETIN] |  |  | inactive |  | Non-toxic | > 50 µM | inactive | > 40% | 33.5 µM | inactive | Active |
| Cc1ccc(-c2cc(C(F)(F)F)nn2-c2ccc(S(N)(=O)=O)cc2)cc1 [CELECOXIB] |  |  |  | 1.28 µM |  | 1.84 µM |  |  |  |  |  |
| C[C@@H]1O[C@@H](OC[C@H]2O[C@@H](Oc3c(-c4ccc(O)cc4)oc4cc(O)cc(O)c4c3=O)[C@H](O)[C@@H](O)[C@@H]2O)[C@H](O)[C@H](O)[C@H]1O [NICOTIFLOROSIDE] |  |  | inactive | 41.5 µM | Non-toxic | 45.3 µM | inactive |  |  | inactive | Active |
| CC(=O)O[C@H]1[C@H](OC[C@H]2O[C@@H](Oc3ccc(O)cc3)[C@H](O)[C@@H](O)[C@@H]2O)O[C@@H](C)[C@H](OC(=O)c2ccc(O)cc2)[C@H]1O |  |  | inactive | > 50 µM | Non-toxic | > 50 µM | inactive |  |  | inactive | Active |
| O=c1c(O[C@@H]2O[C@H](CO)[C@@H](O)[C@H](O)[C@H]2O)c(-c2ccc(O)c(O)c2)oc2cc(O)cc(O)c12 [ISOQUERCETIN] |  |  | inactive | > 50 µM | Non-toxic |  | inactive | > 40% | 28.4 µM | inactive | Active |
| COC(=O)Cc1c2c3c(cc(O)c(O)c3oc1=O)C(=O)O[C@@H]2C(=O)OC |  |  | inactive |  | Non-toxic | 19.5 µM | inactive |  |  | Active | Active |
